Experiment [1] concerns the target T1, human JAK2 (Homo sapiens, UniProt O60674).
T1 construct: The kinase domain of human JAK2 was amplified; GST (N); made in house; host or cells: Sf9 (Spodoptera frugiperda) insect cells, baculovirus
Nature of the experiment: JAK2 kinase enzyme assay (Alphascreen). Format: biochemical. As to conditions: 80 or 625 um ATP. The method, then: (§1) For screening purposes, compounds (in 100% DMSO) were warmed at 37 degrees for at least 20 minutes before use. A […] stock was initially made in assay buffer, where the final concentration of DMSO was 0.3%. The stocks were then diluted in 384 well Optiplates (Packard) where the final concentration of the compound was 5 μM.
The kinase domain of human JAK2 was amplified from U937mRNA using the polymerase chain reaction with the following primers: […]
The JAK2 PCR products were cloned into the pDest20 destination vector (Gibco). The JAK2 plasmid was then transformed into competent DH10Bac cells (Gibco), and the recombinant baculovirus was prepared via Sf9 insect cell transfection.
(§2) Baculovirus preparations from each of the JAK family members were infected into one litre of Sf9 (Spodoptera frugiperda) cells (Invitrogen) grown in SF900II serum free medium (Invitrogen) to a cell density of approximately 2×10^6 cells/ml. Cells were infected with virus at a cell culture to virus stock ratio of 20:1. Cells were harvested and lysed 48 hours post infection. The GST-tagged JAK kinase domains were purified by affinity chromatography on a GSH agarose column (Scientifix).
(§3) Kinase assays were performed in 384 well Optiplates (Packard) using an Alphascreen Protein Tyrosine KinaseP100 detection kit The compounds were pre-incubated with affinity purified PTK domain in the presence of phosphotyrosine assay buffer (10 mM HEPES, pH 7.5, 100 mM MgCl2, 25 mM NaCl, 200 mM sodium vanadate and 0.1% Tween 20) for 20 minutes. The compounds were then incubated with substrate in the presence of either 80 or 625 um ATP for 60 or 90 minutes. The substrate used was either susbtrate-1 with the sequence biotin-EGPWLEEEEEAYGWMDF-NH2 [SEQ. ID. NO. 13] (final concentration 111 μM) or susbtrate-2 substrate with the sequence biotin-EQEDEPEGDYFEWLEPE (final concentration 133 μM). Alphascreen phosphotyrosine acceptor beads followed by streptavidin donor beads at a concentration of 1/100 in stop buffer were added to each well under subdued light and incubated for 2-3 hours. The Alphascreen plates were read on a Packard Fusion Alpha instrument.
For orientation: Alpha assays give light when donor and acceptor beads are brought close together.

The target of experiment [2] is T2, human JAK3 (Homo sapiens, UniProt P52333).
T2 construct: The kinase domain of human JAK3 was amplified; GST (N); made in house; host or cells: Sf9 (Spodoptera frugiperda) insect cells, baculovirus
Nature of the experiment: JAK3 kinase enzyme assay (Alphascreen). As to conditions: 80 or 625 um ATP. It is filed as biochemical. The method, then: as §1
The kinase domain of human JAK3 was amplified from U937mRNA using the polymerase chain reaction with the following primers: […]
The JAK3 PCR products were cloned into the pDest20 destination expression vector (Gibco). The JAK3 plasmid was then transformed into competent DH10Bac cells (Gibco), and the recombinant baculovirus was prepared via Sf9 insect cell transfection.
as §2, §3

The subject of experiment [3] is BafT_J2. Put plainly: Cellular screening, BaF3 TEL:JAK2 cells (Alamar Blue). Format: cell-based. As to conditions: Mus musculus, 40 hr incubation. As for the experimental part:
(§4) For screening purposes, compounds were diluted in 96 well plates at a concentration of 20 μM. Plates were warmed at 37° C. for 30 minutes before the assay was performed.
(§5) The coding region encompassing nucleotides 1-487 of TEL was amplified by PCR using the oligonucleotides 5TEL (5′-GGAGGATCCTGATCTCTCTCGCTGTGAGAC-3′) [SEQ ID NO 14] and 3TEL (5′-AGGC GTCGACTTCTTCTTCATGGTTCTG-3′) [SEQ ID NO 15] and U937 mRNA as a template. A BamHI restriction site was incorporated into the 5TEL primer, and a Sal I restriction site was incorporated into the 3TEL primer. The regions encompassing the kinase domain of JAK2 (nucleotides 2994-3914; JAK2F 5′-ACGC GTCGACGGTGCCTTTGAAGACCGGGAT-3′ [SEQ ID NO 16]; JAK2R 5′-ATAGTTTAGCGGCCGCTCAGAATGAAGGTCATTT-3′) [SEQ ID NO 17] and JAK3 (nucleotides 2520-3469; JAK3F 5′-GAAGTCGACTATGCCTGCCAAGACCCCACGATCTT-3′) [SEQ ID NO 18] were generated by PCR using Taq DNA polymerase (Gibco/BRL) and U937 mRNA as a template. A Sal I restriction site was incorporated into the forward primer of JAK2 and JAK3, a Not I site was incorporated into the JAK2 reverse primer and a Xba I site was added to the reverse primer of JAK3.
A TEL/Jak2 fusion was generated by digestion of the TELPCR product with BamH I/Sal I restriction enzymes, digestion of the JAK2 PCR product with Sal I/Not I restriction enzymes, followed by ligation and subcloning of the ligation product into the mammalian expression Vector pTRE 2 (Clontech), which was prepared by digestion with BamH I-Not I restriction enzymes, to give the TEL/Jak2 fusion plasmid pTELJAK2.
(§6) The growth factor dependant myelomonocytic cell line BaF3 bearing the pTET-off plasmid (Clontech) was transfected with either pTELJAK2 or pTELJAK3, and the transfected cells were selected for growth-factor independent cell growth. The BaF3 wild-type cells were cultured in DMEM containing 10% FCS, 10% WEHI 3B conditioned medium. The BaF3 TELJAK cells ([…]) were cultured in DMEM 10% Tet-System Approved FBS (without WEHI 3B conditioned medium).
(§7) Cell suspensions were prepared by harvesting cells from culture. (the cells used in this test were in late log phase growth with high viability.) Cells were diluted in the appropriate growth medium, as described above, to 1.1× final concentration (from 50,000 cell/mL to 200,000 cell/mL, depending on cell line).
(§8) Compounds to be tested were added (10 μL, 10× final concentration) to a flat bottomed 96-well plate. The cellular suspension (90 μL per well) was then added, and the plate incubated for 40 hr at 37° C., 5% CO2. Alamar Blue 10 μL per well was added and the plates returned to the incubator for a further 4-6 hours. The plates were then read at 544 nm.
In general terms: Alamar Blue is a resazurin reagent that responds to reducing activity.

Experiment [4] concerns BAF3wt. Put plainly: Cellular screening, BaF3 wild-type cells (Alamar Blue). It is filed as cell-based. The note with it: Mus musculus, 40 hr incubation. The method, then:
as §4, §6, §7, §8

Experiment [5] deals with BafT_J3. Put plainly: Cellular screening, BaF3 TEL:JAK3 cells (Alamar Blue). As to conditions: Mus musculus, 40 hr incubation. Format: cell-based. The method, then:
as §4, §5
The TEL/Jak3 fusion was prepared by ligation of the JAK3 Sal I/Not I cleaved kinase domain PCR product with the BamH I/Sal I restriction digested TEL product, followed by ligation of the ligation product into the BamH I/Not I digested pTRE2, to give the TEL/Jak3 fusion plasmid pTELJAK3.
as §6, §7, §8

The subject of experiment [6] is CTLL2. Nature of the experiment: Cellular screening, CTLL2 cells (Alamar Blue). Format: cell-based. As to conditions: Mus musculus, CTLL-2, 40 hr incubation. As for the experimental part:
as §4, §7, §8

T1 sequence (O60674 849-1124 limits assumed): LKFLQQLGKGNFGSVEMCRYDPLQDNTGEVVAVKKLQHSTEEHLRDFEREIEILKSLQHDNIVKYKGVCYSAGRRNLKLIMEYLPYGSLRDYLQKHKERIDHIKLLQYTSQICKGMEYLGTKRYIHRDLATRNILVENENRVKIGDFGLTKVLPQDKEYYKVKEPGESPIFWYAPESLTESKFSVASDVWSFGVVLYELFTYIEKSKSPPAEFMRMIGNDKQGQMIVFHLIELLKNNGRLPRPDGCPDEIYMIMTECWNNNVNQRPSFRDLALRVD
T2 sequence (P52333 822-1111 limits assumed): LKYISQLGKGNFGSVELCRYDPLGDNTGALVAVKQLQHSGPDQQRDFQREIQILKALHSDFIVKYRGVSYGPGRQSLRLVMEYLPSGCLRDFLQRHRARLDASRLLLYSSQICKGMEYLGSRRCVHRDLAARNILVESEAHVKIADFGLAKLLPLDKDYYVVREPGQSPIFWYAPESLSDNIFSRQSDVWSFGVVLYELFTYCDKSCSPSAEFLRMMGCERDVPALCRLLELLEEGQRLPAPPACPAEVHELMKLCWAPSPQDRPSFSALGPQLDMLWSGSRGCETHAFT

As to `NS(=O)(=O)c1cccc(-c2csc3cnc(Nc4ccc(OCCN5CCCC5)cc4)nc23)c1` [Compound 73, 3-(2-(4-(2-(pyrrolidin-1-yl)ethoxy)phenylamino)thieno[3,2-d]pyrimidin-7-yl)benzenesulfonamide], the IC50 in experiment [1] is less than 100 nM; in experiment [2], less than 100 nM; in experiment [3] it was less than 1000 nM; in experiment [4], less than 1000 nM; in experiment [5], less than 1000 nM; in experiment [6], less than 5000 nM.
For `Fc1ccc(-c2csc3cnc(Nc4ccc(OCCN5CCCC5)cc4)nc23)cc1Cl` [Compound 74, 7-(3-chloro-4-fluorophenyl)-N-(4-(2-(pyrrolidin-1-yl)ethoxy)phenyl)thieno[3,2-d]pyrimidin-2-amine], the IC50 in experiment [1] is less than 100 nM; in experiment [2] it was less than 500 nM; in experiment [3], less than 1000 nM; in experiment [4], less than 5000 nM; in experiment [5] it was less than 5000 nM; in experiment [6] it was less than 5000 nM.
In the case of `c1cc(Nc2ncc3scc(-c4ccc5c(c4)OCO5)c3n2)ccc1CN1CCOCC1` [Compound 76, 7-(benzo[d][1,3]dioxol-5-yl)-N-(4-(morpholinomethyl)phenyl)thieno[3,2-d]pyrimidin-2-amine], the IC50 in experiment [1] is less than 100 nM; in experiment [2], less than 500 nM; in experiment [3], less than 1000 nM; in experiment [4], less than 1000 nM; in experiment [5] it was less than 1000 nM; in experiment [6] it was less than 1000 nM.
In the case of `CC(C)(C)OC(=O)N1CC=C(c2csc3cnc(Nc4ccc(CN5CCOCC5)cc4)nc23)CC1` [Compound 79, tert-butyl 4-(2-(4-(morpholinomethyl)phenylamino)thieno[3,2-d]pyrimidin-7-yl)-5,6-dihydropyridine-1(2H)-carboxylate], the IC50 in experiment [1] was less than 100 nM; in experiment [2] it was less than 100 nM; in experiment [3] it was less than 1000 nM; in experiment [4], less than 5000 nM; in experiment [5], less than 5000 nM; in experiment [6], less than 1000 nM.
Turning to `CC(=O)Nc1cccc(-c2csc3cnc(Nc4ccc(CN5CCOCC5)cc4)nc23)c1` [Compound 81, N-(3-(2-(4-(morpholinomethyl)phenylamino)thieno[3,2-d]pyrimidin-7-yl)phenyl)acetamide], the IC50 in experiment [1] is less than 100 nM; in experiment [2] it was less than 500 nM; in experiment [3] it was less than 1000 nM; in experiment [4], less than 1000 nM; in experiment [5], less than 1000 nM; in experiment [6] it was less than 1000 nM.
`CS(=O)(=O)Nc1cccc(-c2csc3cnc(Nc4ccc(CN5CCOCC5)cc4)nc23)c1` [Compound 83, N-(3-(2-(4-(morpholinomethyl)phenylamino)thieno[3,2-d]pyrimidin-7-yl)phenyl)methanesulfonamide]: the IC50 was less than 100 nM in experiment [1]; less than 100 nM in experiment [2]; less than 1000 nM in experiment [3]; less than 1000 nM in experiment [4]; less than 1000 nM in experiment [5]; less than 1000 nM in experiment [6].
`CN1CCN(c2ccc(-c3csc4cnc(Nc5ccc(CN6CCOCC6)cc5)nc34)cc2)CC1` [Compound 84, 7-(4-(4-methylpiperazin-1-yl)phenyl)-N-(4-(morpholinomethyl)phenyl)thieno[3,2-d]pyrimidin-2-amine]: the IC50 was less than 100 nM in experiment [1]; less than 500 nM in experiment [2]; less than 1000 nM in experiment [3]; less than 1000 nM in experiment [4]; less than 1000 nM in experiment [5]; less than 1000 nM in experiment [6].
Turning to `COc1cc(-c2csc3cnc(Nc4ccc(CN5CCOCC5)cc4)nc23)ccc1NC(C)=O` [Compound 85, N-(2-methoxy-4-(2-(4-(morpholinomethyl)phenylamino)thieno[3,2-d]pyrimidin-7-yl)phenyl)acetamide], the IC50 was less than 100 nM in experiment [1]; less than 100 nM in experiment [2]; less than 1000 nM in experiment [3]; less than 1000 nM in experiment [4]; less than 1000 nM in experiment [5]; less than 1000 nM in experiment [6].
On to `COc1cc(Nc2ncc3scc(-c4cccc(CO)c4)c3n2)cc(OC)c1OC` [Compound 87, (3-(2-(3,4,5-trimethoxyphenylamino)thieno[3,2-d]pyrimidin-7-yl)phenyl)methanol], for which the IC50 in experiment [1] was less than 100 nM; in experiment [2], less than 100 nM; in experiment [3], less than 1000 nM; in experiment [4], less than 1000 nM; in experiment [5], less than 1000 nM; in experiment [6], less than 1000 nM.
In the case of `COc1cc(Nc2ncc3scc(-c4ccc(CO)cc4)c3n2)cc(OC)c1OC` [Compound 88, (4-(2-(3,4,5-trimethoxyphenylamino)thieno[3,2-d]pyrimidin-7-yl)phenyl)methanol], the IC50 was less than 100 nM in experiment [1]; less than 100 nM in experiment [2]; less than 1000 nM in experiment [3]; less than 1000 nM in experiment [4]; less than 1000 nM in experiment [5]; less than 1000 nM in experiment [6].
As for `OCc1cccc(-c2csc3cnc(Nc4ccc(N5CCOCC5)cc4)nc23)c1` [Compound 89, (3-(2-(4-morpholinophenylamino)thieno[3,2-d]pyrimidin-7-yl)phenyl)methanol], the half-maximal inhibitory concentration (IC50) in experiment [1] was less than 100 nM; in experiment [2] it was less than 100 nM; in experiment [3] it was less than 1000 nM; in experiment [4], less than 1000 nM; in experiment [5], less than 1000 nM; in experiment [6], less than 1000 nM.
Take `OCc1ccc(-c2csc3cnc(Nc4ccc(N5CCOCC5)cc4)nc23)cc1` [Compound 90, (4-(2-(4-morpholinophenylamino)thieno[3,2-d]pyrimidin-7-yl)phenyl)methanol]: the IC50 was less than 100 nM in experiment [1]; less than 100 nM in experiment [2]; less than 1000 nM in experiment [3]; less than 1000 nM in experiment [4]; less than 1000 nM in experiment [5]; less than 1000 nM in experiment [6].

By IC50 is commonly meant the point on the concentration scale where inhibition reaches its midpoint. Lower therefore signals inhibition by little substance.
